Data from the NIST ThermoML archive (doi:10.1021/je100687x).

Assay: xn = mol fraction of the nth substance listed
Conditions: 101 kPa, Liquid; for electrical conductivity: Crison GLP 31+ conductivimeter

CCCCn1cc[n+](C)c1.F[B-](F)(F)F [1-butyl-3-methylimidazolium tetrafluoroborate] + CCO
Conditions | electrical conductivity [S/m] | viscosity [mPa·s]
288.15 K, x2 = 0 | – | 173.5
288.15 K, x2 = 0.0765 | – | 121.4
288.15 K, x2 = 0.199 | – | 69.06
288.15 K, x2 = 0.2894 | – | 45.23
288.15 K, x2 = 0.3918 | – | 28.39
288.15 K, x2 = 0.4976 | – | 18.13
288.15 K, x2 = 0.6001 | – | 12.35
288.15 K, x2 = 0.717 | – | 7.86
288.15 K, x2 = 0.7998 | – | 5.676
288.15 K, x2 = 0.9014 | – | 3.06
298.15 K, x2 = 0 | 0.352 | 99.2
298.15 K, x2 = 0.0368 | 0.393 | –
298.15 K, x2 = 0.0765 | – | 72.49
298.15 K, x2 = 0.1136 | 0.522 | –
298.15 K, x2 = 0.1492 | 0.594 | –
298.15 K, x2 = 0.199 | – | 44.05
298.15 K, x2 = 0.2894 | – | 30.15
298.15 K, x2 = 0.2992 | 0.939 | –
298.15 K, x2 = 0.3918 | – | 19.7
298.15 K, x2 = 0.4162 | 1.268 | –
298.15 K, x2 = 0.4976 | – | 12.97
298.15 K, x2 = 0.5137 | 1.551 | –
298.15 K, x2 = 0.5866 | 1.729 | –
298.15 K, x2 = 0.6001 | – | 9.038
298.15 K, x2 = 0.6426 | 1.826 | –
298.15 K, x2 = 0.6863 | 1.871 | –
298.15 K, x2 = 0.717 | – | 5.25
298.15 K, x2 = 0.7204 | 1.874 | –
298.15 K, x2 = 0.7498 | 1.859 | –
298.15 K, x2 = 0.7947 | 1.745 | –
298.15 K, x2 = 0.7998 | – | 4.286
298.15 K, x2 = 0.8394 | 1.564 | –
298.15 K, x2 = 0.8763 | 1.343 | –
298.15 K, x2 = 0.8835 | 1.297 | –
298.15 K, x2 = 0.8908 | 1.249 | –
298.15 K, x2 = 0.9014 | – | 2.371
298.15 K, x2 = 0.9034 | 1.155 | –
298.15 K, x2 = 0.9134 | 1.077 | –
298.15 K, x2 = 0.9217 | 1.01 | –
298.15 K, x2 = 0.9287 | 0.94 | –
298.15 K, x2 = 0.9347 | 0.874 | –
298.15 K, x2 = 0.9399 | 0.825 | –
298.15 K, x2 = 0.9493 | 0.733 | –
298.15 K, x2 = 0.9564 | 0.658 | –
298.15 K, x2 = 0.9617 | 0.597 | –
298.15 K, x2 = 0.9668 | 0.536 | –
298.15 K, x2 = 0.9755 | 0.423 | –
298.15 K, x2 = 0.9897 | 0.221 | –
298.15 K, x2 = 0.9916 | 0.194 | –
298.15 K, x2 = 0.9934 | 0.162 | –
298.15 K, x2 = 0.9972 | 0.0851 | –
308.15 K, x2 = 0 | – | 61.3
308.15 K, x2 = 0.0765 | – | 46.39
308.15 K, x2 = 0.199 | – | 29.81
308.15 K, x2 = 0.2894 | – | 21.18
308.15 K, x2 = 0.3918 | – | 14.45
308.15 K, x2 = 0.4976 | – | 9.836
308.15 K, x2 = 0.6001 | – | 7.026
308.15 K, x2 = 0.717 | – | 4.056
308.15 K, x2 = 0.7998 | – | 3.363
308.15 K, x2 = 0.9014 | – | 1.947
318.15 K, x2 = 0 | – | 40.4
318.15 K, x2 = 0.0765 | – | 31.43
318.15 K, x2 = 0.199 | – | 21.16
318.15 K, x2 = 0.2894 | – | 15.5
318.15 K, x2 = 0.3918 | – | 11.01
318.15 K, x2 = 0.4976 | – | 7.691
318.15 K, x2 = 0.6001 | – | 5.567
318.15 K, x2 = 0.717 | – | 3.252
318.15 K, x2 = 0.7998 | – | 2.723
318.15 K, x2 = 0.9014 | – | 1.641
